Where two headings read alike, the source gives them in different places. Numbered stars: 1 amine (or outer) side, 2 acyl side, 3 side chain; on linkers, the order of the positions; unused ones are H or OH. Square brackets hold non-standard residues; d marks the D form. Side chains are listed from the residue outwards. Peptide text beside a SMILES is read from it. * marks the point of attachment. γGlu = O=C(O)[C@H](CCC(=O)[*:2])N[*:1]; Stearoyl = CCCCCCCCCCCCCCCCCC(=O)*; αMeF = C[C@](N)(Cc1ccccc1)C(=O)O; αMeK = C[C@](N)(CCCCN)C(=O)O; Lauroyl = CCCCCCCCCCCC(=O)*; αMeS = C[C@](N)(CO)C(=O)O; AEEA = NCCOCCOCC(=O)O; Aib = CC(C)(N)C(=O)O

Holding throughout (assay type): cell-based
The target of assay [1] is T1, human GLP-1 receptor (GLP-1R) (Homo sapiens, UniProt P43220).
T1 construct: expressed in transfected cells
Put plainly: cAMP assay, human GLP-1R cells. A digest of the protocol: (§1)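 Peptide-stimulated cAMP measured by two-step HTRF after a 30 min room-temperature incubation with receptor-expressing cells (hGLP-1R, hGIPR at 1×10^5 cells/ml; hGCGR at 2×10^5 cells/ml). Duplicate dilutions; EC50 from 4-parameter logistic fit of % Delta F.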
In general terms: Cyclic AMP is a second messenger, typically raised through Gs and lowered through Gi signalling.

The target in assay [2] is T2, human glucagon receptor (GCGR) (Homo sapiens, UniProt P47871).
T2 construct: expressed in transfected cells
As to the kind of experiment: cAMP assay, human GCGR cells. A digest of the protocol: as §1

The target of assay [3] is T3, human glucose-dependent insulinotropic peptide receptor (GIPR) (Homo sapiens, UniProt P48546).
T3 construct: expressed in transfected cells
T3 sequence (P48546 22-466): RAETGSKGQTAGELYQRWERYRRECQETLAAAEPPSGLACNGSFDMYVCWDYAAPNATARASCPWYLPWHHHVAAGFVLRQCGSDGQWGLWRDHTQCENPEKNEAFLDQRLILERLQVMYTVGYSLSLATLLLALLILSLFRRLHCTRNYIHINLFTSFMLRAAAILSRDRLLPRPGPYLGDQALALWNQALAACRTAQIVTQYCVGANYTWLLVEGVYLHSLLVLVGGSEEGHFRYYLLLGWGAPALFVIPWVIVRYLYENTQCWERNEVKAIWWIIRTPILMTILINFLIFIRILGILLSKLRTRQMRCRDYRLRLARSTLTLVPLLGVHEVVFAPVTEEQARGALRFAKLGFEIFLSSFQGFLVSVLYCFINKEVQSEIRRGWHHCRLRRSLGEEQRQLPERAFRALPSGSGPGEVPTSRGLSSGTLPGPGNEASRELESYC
Put plainly: cAMP assay, human GIPR cells. The gist of the method: as §1

The target of another assay is T4, GLP-1R (INS1e assay) (Rattus norvegicus, UniProt P32301).
T4 construct: endogenous in cells; host or cells: INS-1E cells
T4 sequence (P32301 22-463): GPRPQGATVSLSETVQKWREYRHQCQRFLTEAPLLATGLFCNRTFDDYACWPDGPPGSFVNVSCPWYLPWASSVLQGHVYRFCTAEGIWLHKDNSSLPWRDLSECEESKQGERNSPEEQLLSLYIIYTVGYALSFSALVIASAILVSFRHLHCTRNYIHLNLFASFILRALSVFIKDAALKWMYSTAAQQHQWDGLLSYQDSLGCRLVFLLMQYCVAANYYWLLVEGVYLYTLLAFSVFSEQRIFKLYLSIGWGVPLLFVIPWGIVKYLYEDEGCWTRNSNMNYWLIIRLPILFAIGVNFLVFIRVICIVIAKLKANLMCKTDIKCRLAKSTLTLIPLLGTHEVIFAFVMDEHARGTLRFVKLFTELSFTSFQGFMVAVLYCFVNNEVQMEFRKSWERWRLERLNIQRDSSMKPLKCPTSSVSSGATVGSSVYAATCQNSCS
Put plainly: INS1e assay, cAMP activity at GLP-1R. The gist of the method:
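cAMP was quantified by two-step HTRF, using anti-cAMP cryptate donor and cAMP-d2 acceptor, each diluted 1/20 in conjugate and lysis buffer. EC50 values of the synthetic peptides were derived from the cAMP readout.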

Setting [4] is: tris-lipidated peptides, mean of n1 and n2, read-out: INS1e assay EC50 Mean pM GLP-1R.
Where [5] appears, read: tris-lipidated peptides, replicate n1, read-out: INS1e assay EC50 GLP-1R n1.
Setting [6] is: tris-lipidated peptides, replicate n2, read-out: INS1e assay EC50 GLP-1R n2.
[7] abbreviates: cAMP assay, first determination (n1), read-out: Primary assay EC50 Gluc-R (n1).
[8] abbreviates: cAMP assay, second determination (n2), read-out: Primary assay EC50 Gluc-R (n2).
The mark [9] stands for this setting: cAMP assay, first determination (n1), read-out: Primary assay EC50 GIP-R (n1).
The mark [10] stands for this setting: cAMP assay, second determination (n2), read-out: Primary assay EC50 GIP-R (n2).
Where [11] appears, read: mono-lipidated peptides, mean of n1 and n2, read-out: INS1e assay EC50 Mean pM GLP-1R.
Where [12] appears, read: mono-lipidated peptides, replicate n1, read-out: INS1e assay EC50 GLP-1R n1.
Where [13] appears, read: mono-lipidated peptides, replicate n2, read-out: INS1e assay EC50 GLP-1R n2.

T1 sequence (P43220 24-463): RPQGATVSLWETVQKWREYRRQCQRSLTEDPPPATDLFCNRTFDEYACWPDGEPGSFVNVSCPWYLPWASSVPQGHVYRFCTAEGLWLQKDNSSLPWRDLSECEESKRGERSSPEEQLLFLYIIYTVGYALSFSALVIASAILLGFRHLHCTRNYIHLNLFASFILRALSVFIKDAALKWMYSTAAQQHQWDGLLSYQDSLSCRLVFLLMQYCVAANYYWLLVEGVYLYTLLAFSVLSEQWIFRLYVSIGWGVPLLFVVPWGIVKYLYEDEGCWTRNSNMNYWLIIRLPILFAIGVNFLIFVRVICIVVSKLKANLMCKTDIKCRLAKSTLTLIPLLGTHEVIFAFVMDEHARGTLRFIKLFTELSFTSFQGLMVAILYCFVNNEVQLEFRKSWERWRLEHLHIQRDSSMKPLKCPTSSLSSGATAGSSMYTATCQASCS
T2 sequence (P47871 26-477): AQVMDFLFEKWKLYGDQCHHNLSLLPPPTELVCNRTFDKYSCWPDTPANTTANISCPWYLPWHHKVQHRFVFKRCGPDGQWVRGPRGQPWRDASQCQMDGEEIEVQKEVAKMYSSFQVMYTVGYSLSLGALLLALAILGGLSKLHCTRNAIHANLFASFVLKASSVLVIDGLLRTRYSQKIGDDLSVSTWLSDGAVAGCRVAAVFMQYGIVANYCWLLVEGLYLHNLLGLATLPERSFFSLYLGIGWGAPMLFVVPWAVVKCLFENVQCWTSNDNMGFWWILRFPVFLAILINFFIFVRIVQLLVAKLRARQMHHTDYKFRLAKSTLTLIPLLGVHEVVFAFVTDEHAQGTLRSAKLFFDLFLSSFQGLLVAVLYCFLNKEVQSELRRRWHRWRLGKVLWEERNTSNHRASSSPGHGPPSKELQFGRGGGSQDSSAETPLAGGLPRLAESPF

For the molecule `CCCCCCCCCCCC(=O)N[C@@H](CCC(=O)NCCOCCOCC(=O)NCCOCCOCC(=O)NCCCC[C@H](NC(=O)[C@H](C)NC(=O)[C@@H](NC(=O)[C@H](Cc1ccccc1)NC(=O)[C@H](CCC(=O)O)NC(=O)[C@](C)(CCCCN)NC(=O)[C@H](C)NC(=O)[C@H](C)NC(=O)[C@H](CCC(=O)O)NC(=O)[C@H](CCCCNC(=O)COCCOCCNC(=O)COCCOCCNC(=O)CC[C@H](NC(=O)CCCCCCCCCCC)C(=O)O)NC(=O)[C@H](CCC(=O)O)NC(=O)[C@H](CC(C)C)NC(=O)[C@H](Cc1ccc(O)cc1)NC(=O)[C@H](CO)NC(=O)[C@H](CO)NC(=O)[C@H](CCCCNC(=O)COCCOCCNC(=O)COCCOCCNC(=O)CC[C@H](NC(=O)CCCCCCCCCCC)C(=O)O)NC(=O)[C@H](CC(=O)O)NC(=O)[C@H](CO)NC(=O)[C@@H](NC(=O)[C@](C)(Cc1ccccc1)NC(=O)[C@H](CO)NC(=O)CNC(=O)[C@H](CCC(=O)O)NC(=O)C(C)(C)NC(=O)[C@@H](N)Cc1c[nH]cn1)[C@@H](C)O)[C@@H](C)CC)C(=O)N[C@H](C(=O)N[C@H](C(=O)N[C@@H](CCC(=O)O)C(=O)NCC(=O)NCC(N)=O)C(C)C)C(C)C)C(=O)O` [compound 455] (H-H[Aib]EGS[αMeF]TSDK([AEEA-AEEA-γGlu-Lauroyl])SSYLEK([AEEA-AEEA-γGlu-Lauroyl])EAA[αMeK]EFIAK([AEEA-AEEA-γGlu-Lauroyl])VVEGG-NH2), the EC50 was found to be 87.4 pM in assay [1] (tris-lipidated peptides, mean of n1 and n2, read-out: Primary assay EC50 Mean pM GLP-1R); 54.8 pM in assay [1] (tris-lipidated peptides, replicate n1, read-out: Primary assay EC50 GLP-1R n1); 120 pM in assay [1] (tris-lipidated peptides, replicate n2, read-out: Primary assay EC50 GLP-1R n2); 19.8 nM in assay [2] (tris-lipidated peptides, first replicate, read-out: Primary assay EC50 Gluc-R (n1)); 19.8 nM in assay [3] (tris-lipidated peptides, second replicate, read-out: Primary assay EC50 GIP-R (n2)); 4910 pM at GLP-1R (INS1e assay) (setting [4]). The values for the EC50 at GLP-1R (INS1e assay) (setting [5]) and on GLP-1R (INS1e assay) (setting [6]) were 6740 pM and 3080 pM, respectively.
Turning to `CCCCCCCCCCCC(=O)NCCOCCOCC(=O)NCCOCCOCC(=O)NCCCC[C@H](NC(=O)[C@@H](NC(=O)[C@@H](NC(=O)[C@](C)(Cc1ccccc1)NC(=O)[C@H](C)NC(=O)[C@@H](NC(=O)[C@](C)(Cc1ccccc1)NC(=O)[C@H](CCC(=O)O)NC(=O)[C@](C)(CCCCN)NC(=O)[C@H](C)NC(=O)[C@H](C)NC(=O)[C@H](CCC(=O)O)NC(=O)CNC(=O)[C@H](CCC(=O)O)NC(=O)[C@H](CC(C)C)NC(=O)[C@](C)(Cc1ccccc1)NC(=O)[C@H](CO)NC(=O)[C@](C)(CO)NC(=O)[C@@H](NC(=O)[C@H](CC(=O)O)NC(=O)[C@H](CO)NC(=O)[C@@H](NC(=O)[C@](C)(Cc1ccccc1)NC(=O)[C@H](CO)NC(=O)CNC(=O)[C@H](CCC(=O)O)NC(=O)C(C)(C)NC(=O)[C@@H](N)Cc1c[nH]cn1)[C@@H](C)O)C(C)C)[C@@H](C)CC)C(C)C)C(C)C)C(=O)NCC(=O)NCC(N)=O` [compound 171], the EC50 was 2.5 pM in assay [1] (cAMP assay, first determination (n1), read-out: Primary assay EC50 GLP-1R n1); 1.2 pM in assay [1] (cAMP assay, second determination (n2), read-out: Primary assay EC50 GLP-1R n2); 1.9 pM in assay [1] (mean of n1 and n2, read-out: Mean pM GLP-1R); at least 27 nM in assay [2] (setting [7]); at least 27 nM in assay [2] (setting [8]); at least 27 nM in assay [3] (setting [9]). Moreover, the EC50 in assay [3] (setting [10]) was at least 27 nM; at GLP-1R (INS1e assay) (setting [11]), 128 pM; on GLP-1R (INS1e assay) (setting [12]) it was 81.7 pM; on GLP-1R (INS1e assay) (setting [13]), 175 pM.
On to `CCCCCCCCCCCC(=O)N[C@@H](CCC(=O)NCCOCCOCC(=O)NCCOCCOCC(=O)NCCCC[C@H](NC(=O)CNC(=O)[C@H](CCC(=O)O)NC(=O)[C@H](CC(C)C)NC(=O)[C@H](CCCCNC(=O)COCCOCCNC(=O)COCCOCCNC(=O)CC[C@H](NC(=O)CCCCCCCCCCC)C(=O)O)NC(=O)[C@H](CO)NC(=O)[C@](C)(CO)NC(=O)[C@@H](NC(=O)[C@H](CC(=O)O)NC(=O)[C@H](CO)NC(=O)[C@@H](NC(=O)[C@](C)(Cc1ccccc1)NC(=O)[C@H](CO)NC(=O)CNC(=O)[C@H](CCC(=O)O)NC(=O)C(C)(C)NC(=O)[C@@H](N)Cc1c[nH]cn1)[C@@H](C)O)C(C)C)C(=O)N[C@@H](C)C(=O)N[C@@H](C)C(=O)N[C@@](C)(CCCCN)C(=O)N[C@@H](CCC(=O)O)C(=O)N[C@@H](Cc1ccccc1)C(=O)N[C@H](C(=O)N[C@@H](C)C(=O)N[C@@H](Cc1ccccc1)C(=O)N[C@@H](CCCCNC(=O)COCCOCCNC(=O)COCCOCCNC(=O)CC[C@H](NC(=O)CCCCCCCCCCC)C(=O)O)C(=O)N[C@H](C(=O)N[C@@H](CCC(=O)O)C(=O)NCC(=O)NCC(N)=O)C(C)C)[C@@H](C)CC)C(=O)O` [compound 480] (H-H[Aib]EGS[αMeF]TSDV[αMeS]SK([AEEA-AEEA-γGlu-Lauroyl])LEGK([AEEA-AEEA-γGlu-Lauroyl])AA[αMeK]EFIAFK([AEEA-AEEA-γGlu-Lauroyl])VEGG-NH2), for which the EC50 in assay [2] (tris-lipidated peptides, second replicate, read-out: Primary assay EC50 Gluc-R (n2)) is 20 nM; in assay [3] (tris-lipidated peptides, first replicate, read-out: Primary assay EC50 GIP-R (n1)) it was 20 nM; at GLP-1R (INS1e assay) (setting [4]), 6530 pM; at GLP-1R (INS1e assay) (setting [5]), 9370 pM; at GLP-1R (INS1e assay) (setting [6]), 3690 pM.
As to `CCCCCCCCCCCCCCCCCC(=O)NCCOCCOCC(=O)NCCOCCOCC(=O)NCCOCCOCC(=O)NCCCC[C@H](NC(=O)[C@H](C)NC(=O)[C@H](C)NC(=O)[C@H](CCC(=O)O)NC(=O)CNC(=O)[C@H](CCC(=O)O)NC(=O)[C@H](CC(C)C)NC(=O)[C@H](Cc1ccc(O)cc1)NC(=O)[C@H](CO)NC(=O)[C@](C)(CO)NC(=O)[C@@H](NC(=O)[C@H](CC(=O)O)NC(=O)[C@H](CO)NC(=O)[C@@H](NC(=O)[C@](C)(Cc1ccccc1)NC(=O)[C@H](CO)NC(=O)CNC(=O)[C@H](CCC(=O)O)NC(=O)C(C)(C)NC(=O)[C@@H](N)Cc1c[nH]cn1)[C@@H](C)O)C(C)C)C(=O)N[C@@H](CCC(=O)O)C(=O)N[C@@](C)(Cc1ccccc1)C(=O)N[C@H](C(=O)N[C@@H](C)C(=O)N[C@@](C)(Cc1ccccc1)C(=O)N[C@H](C(=O)N[C@H](C(=O)N[C@@](C)(CCCCN)C(=O)NCC(=O)NCC(N)=O)C(C)C)C(C)C)[C@@H](C)CC` [compound 53] (H-H[Aib]EGS[αMeF]TSDV[αMeS]SYLEGEAAK([AEEA-AEEA-AEEA-Stearoyl])E[αMeF]IA[αMeF]VV[αMeK]GG-NH2), the EC50 in assay [2] (setting [7]) was at least 26 nM; in assay [2] (setting [8]) it was at least 26 nM; in assay [3] (setting [9]) it was at least 26 nM; in assay [3] (setting [10]), at least 26 nM; at GLP-1R (INS1e assay) (setting [11]) it was 7 pM; on GLP-1R (INS1e assay) (setting [12]), 6.25 pM. Further, the EC50 on GLP-1R (INS1e assay) (setting [13]) is 8.15 pM.
